Data from patent US11746100B2 (GLOBAL BLOOD THERAPEUTICS, INC., priority 2020, dated 2023).

The compounds below were run against T1, human ferroportin (Homo sapiens, UniProt Q9NP59) (assay: Biological in-vitro ferroportin internalization assay (luciferase reporter)). Details: average pEC50; stably-transfected CHO cell line expressing human ferroportin tagged to a luciferase reporter; 6 h incubation with test compound.
T1 construct: luciferase reporter (read with the Nano-Glo Luciferase Assay System); expressed in transfected cells; host or cells: CHO cells, stably transfected, expression induced with doxycycline
T1 sequence (Q9NP59 1-571): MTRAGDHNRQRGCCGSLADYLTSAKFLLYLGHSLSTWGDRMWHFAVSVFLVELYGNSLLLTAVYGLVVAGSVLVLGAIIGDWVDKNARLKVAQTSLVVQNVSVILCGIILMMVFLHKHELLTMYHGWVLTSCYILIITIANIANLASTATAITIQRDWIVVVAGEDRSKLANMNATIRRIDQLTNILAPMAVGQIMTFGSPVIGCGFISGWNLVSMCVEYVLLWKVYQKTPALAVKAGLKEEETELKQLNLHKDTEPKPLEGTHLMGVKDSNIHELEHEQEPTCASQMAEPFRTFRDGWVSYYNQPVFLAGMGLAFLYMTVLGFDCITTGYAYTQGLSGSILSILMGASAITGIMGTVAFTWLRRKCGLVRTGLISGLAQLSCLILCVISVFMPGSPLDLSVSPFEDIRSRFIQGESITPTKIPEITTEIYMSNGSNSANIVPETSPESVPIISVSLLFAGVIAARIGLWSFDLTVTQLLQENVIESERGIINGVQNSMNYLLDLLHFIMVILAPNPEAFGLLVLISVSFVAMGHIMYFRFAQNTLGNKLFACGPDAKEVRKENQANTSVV
Type: cell-based
Method: The protocol for this assay is generally as described in WO2018/128828, incorporated herein by reference in its entirety. Functional internalization of ferroportin protein was measured using a stably-transfected CHO cell line expressing the human ferroportin tagged to a luciferase reporter. Cells were plated for 24 h in the presence of ferric ammonium citrate (FAC). Ferroportin protein expression was induced with doxycycline for 24 h. The next day, the compounds were added. Test compounds were dissolved in DMSO. Cells were incubated with the test compounds for 6 h, and subsequently luciferase activity was measured using the Nano-Glo Luciferase Assay System and Glomax (Promega, Madison, Wis.). The average pEC50 was determined for the test compounds.

| pEC50 | SMILES |
| --- | --- |
| 7.9 | CN1CCC[C@H](Oc2ccnc(-c3nc4c(c(N(C)CC(=O)NC(C)(C)C)n3)CCC4)c2)C1 [Compound 490, N-tert-butyl-2-{methyl[2-(4-{[(3S)-1-methylpiperidin-3-yl]oxy}pyridin-2-yl)-5H,6H,7H-cyclopenta[d]pyrimidin-4-yl]amino}acetamide] |
| 7.9 | COc1ccc(NC(=O)CN(C)c2nc(-c3cc(OCC4CC4)ccn3)nc3c2CCC3)cn1 [Compound 224, 2-({2-[4-(cyclopropylmethoxy)pyridin-2-yl]-5H,6H,7H-cyclopenta[d]pyrimidin-4-yl}(methyl)amino)-N-(6-methoxypyridin-3-yl)acetamide] |
| 6.8 | COc1ccnc(-c2nc3c(c(N(C)CC(=O)NC4(C)CCOC4)n2)CCC3)c1 (centres unmarked) [Compound 146, 2-{[2-(4-methoxypyridin-2-yl)-5H,6H,7H-cyclopenta[d]pyrimidin-4-yl](methyl)amino}-N-(3-methyloxolan-3-yl)acetamide] |
| 7.8 | CCOc1ccnc(-c2nc3c(c(N(C)CC(=O)Nc4ccc(OC)nc4)n2)CCC3)c1 [Compound 223, 2-{[2-(4-ethoxypyridin-2-yl)-5H,6H,7H-cyclopenta[d]pyrimidin-4-yl](methyl)amino}-N-(6-methoxypyridin-3-yl)acetamide] |
| 7.4 | Cc1ccc(NC(=O)CN(C)c2nc(-c3cc(OC4COC4)ccn3)nc3c2CCC3)cn1 [Compound 324, 2-[methyl({2-[4-(oxetan-3-yloxy)pyridin-2-yl]-5H,6H,7H-cyclopenta[d]pyrimidin-4-yl})amino]-N-(6-methylpyridin-3-yl)acetamide] |
| 7.8 | CN(CC(=O)Nc1cnn(C2CC2)c1)c1nc(-c2cc(OCCO)ccn2)nc2c1CCC2 [Compound 353, N-(1-cyclopropyl-1H-pyrazol-4-yl)-2-({2-[4-(2-hydroxyethoxy)pyridin-2-yl]-5H,6H,7H-cyclopenta[d]pyrimidin-4-yl}(methyl)amino)acetamide] |
| 8.2 | CN(CC(=O)NC(C)(C)C)c1nc(-c2cc(O[C@@H]3CCN(CCF)C3)ccn2)nc2c1CCC2 [Compound 497, N-tert-butyl-2-{[2-(4-{[(3R)-1-(2-fluoroethyl)pyrrolidin-3-yl]oxy}pyridin-2-yl)-5H,6H,7H-cyclopenta[d]pyrimidin-4-yl](methyl)amino}acetamide] |
| 7.5 | COCCOc1ccnc(-c2nc3c(c(N(C)CC(=O)Nc4ccc(OC)nc4)n2)CCC3)c1 [Compound 238, 2-({2-[4-(2-methoxyethoxy)pyridin-2-yl]-5H,6H,7H-cyclopenta[d]pyrimidin-4-yl}(methyl)amino)-N-(6-methoxypyridin-3-yl)acetamide] |

The remaining lines, values behind:

| SMILES | pEC50 |
| --- | --- |
| CN(CC(=O)NC1(C(F)(F)F)CC1)c1nc(-c2ccccn2)nc2c1CCC2 [Compound 98, 2-{methyl[2-(pyridin-2-yl)-5H,6H,7H-cyclopenta[d]pyrimidin-4-yl]amino}-N-[1-(trifluoromethyl)cyclopropyl]acetamide] | 7 |
| Cc1ccnc(-c2nc3c(c(N4CC(C(=O)NC5CCCCC5)C4)n2)CCC3)c1 [Compound 30, N-cyclohexyl-1-[2-(4-methylpyridin-2-yl)-5H,6H,7H-cyclopenta[d]pyrimidin-4-yl]azetidine-3-carboxamide] | 5.7 |
| Cc1ccnc(-c2nc3c(c(N(C)CC(=O)NC(C)(C)C)n2)CCCC3)c1 [Compound 42, N-tert-butyl-2-{methyl[2-(4-methylpyridin-2-yl)-5,6,7,8-tetrahydroquinazolin-4-yl]amino}acetamide] | 7.3 |
| COc1ccc2cnc(-c3nc4c(c(N(C)CC(=O)NC(C)(C)C)n3)CCC4)cc2c1 [Compound 261, N-tert-butyl-2-{[2-(6-methoxyisoquinolin-3-yl)-5H,6H,7H-cyclopenta[d]pyrimidin-4-yl](methyl)amino}acetamide] | 7.6 |
| CN(CC(=O)Nc1nnc(N2CCCCCC2)s1)c1nc(-c2ccccn2)nc2c1CCC2 [Compound 70, N-[5-(azepan-1-yl)-1,3,4-thiadiazol-2-yl]-2-{methyl[2-(pyridin-2-yl)-5H,6H,7H-cyclopenta[d]pyrimidin-4-yl]amino}acetamide] | 7.4 |
| CC(C)NC(=O)CN(C)c1nc(-c2cc(OCCN(C)C)ccn2)nc2c1CCC2(C)C [Compound 456, 2-[(2-{4-[2-(dimethylamino)ethoxy]pyridin-2-yl}-7,7-dimethyl-5H,6H,7H-cyclopenta[d]pyrimidin-4-yl)(methyl)amino]-N-(propan-2-yl)acetamide] | 6.2 |
| CN(C)CCOc1ccnc(-c2nc(N(C)CC(=O)NC(C)(C)C)c3c(n2)C(C)(C)CC3)c1 [Compound 457, N-tert-butyl-2-[(2-{4-[2-(dimethylamino)ethoxy]pyridin-2-yl}-7,7-dimethyl-5H,6H,7H-cyclopenta[d]pyrimidin-4-yl)(methyl)amino]acetamide] | 6.3 |
| CN(CC(=O)NC1(C)CCCC1)c1nc(-c2cc(OCCO)ccn2)nc2c1CCC2 [Compound 179, 2-({2-[4-(2-hydroxyethoxy)pyridin-2-yl]-5H,6H,7H-cyclopenta[d]pyrimidin-4-yl}(methyl)amino)-N-(1-methylcyclopentyl)acetamide] | 7.7 |
| CN(CC(=O)NC(C)(C)C)c1nc(-c2cc(OCCO)ccn2)nc2c1C(C)(C)CC2 [Compound 361, N-tert-butyl-2-({2-[4-(2-hydroxyethoxy)pyridin-2-yl]-5,5-dimethyl-5H,6H,7H-cyclopenta[d]pyrimidin-4-yl}(methyl)amino)acetamide] | 8.1 |
| CN(Cc1ncccn1)c1nc(-c2ccccn2)nc2c1CCC2 [Compound 81, N-methyl-2-(pyridin-2-yl)-N-[(pyrimidin-2-yl)methyl]-5H,6H,7H-cyclopenta[d]pyrimidin-4-amine] | 6.8 |
| O=C(CNc1nc(-c2ccccn2)nc2c1CCC2)Nc1ccccn1 [Compound 5, N-(pyridin-2-yl)-2-{[2-(pyridin-2-yl)-5H,6H,7H-cyclopenta[d]pyrimidin-4-yl]amino}acetamide] | 6.2 |
| CC(C)NC(=O)[C@@H](C)N(C)c1nc(-c2cc(O[C@@H]3CCN(C)C3)ccn2)nc2c1CCC2 [Compound 504, (2R)-2-{methyl[2-(4-{[(3R)-1-methylpyrrolidin-3-yl]oxy}pyridin-2-yl)-5H,6H,7H-cyclopenta[d]pyrimidin-4-yl]amino}-N-(propan-2-yl)propanamide] | 7.9 |
| CN(C)CCSc1ccnc(-c2nc3c(c(N(C)CC(=O)NC(C)(C)C)n2)CCC3)c1 [Compound 499, N-tert-butyl-2-{[2-(4-{[2-(dimethylamino)ethyl]sulfanyl}pyridin-2-yl)-5H,6H,7H-cyclopenta[d]pyrimidin-4-yl](methyl)amino}acetamide] | 8.2 |
| COc1ccc(NC(=O)CN(C)c2nc(-c3cc(OCCO)ccn3)nc3c2C(C)(C)CC3)cn1 [Compound 363, 2-({2-[4-(2-hydroxyethoxy)pyridin-2-yl]-5,5-dimethyl-5H,6H,7H-cyclopenta[d]pyrimidin-4-yl}(methyl)amino)-N-(6-methoxypyridin-3-yl)acetamide] | 8.3 |
| CCn1cncc1-c1nc2c(c(N(C)CC(=O)NC(C)(C)C)n1)CCC2 [Compound 194, N-tert-butyl-2-{[2-(1-ethyl-1H-imidazol-5-yl)-5H,6H,7H-cyclopenta[d]pyrimidin-4-yl](methyl)amino}acetamide] | 5.4 |
